Measured values reported in patent US20170008921A1, “C-3 NOVEL TRITERPENONE WITH C-28 REVERSE AMIDE DERIVATIVES AS HIV INHIBITORS” (HETERO RESEARCH FOUNDATION, priority 2015, published 2017).
Counter-ions that a name gives are not always drawn. Like-named read-outs stand apart in the source and are kept apart here.

Assay: Cyto-toxicity (MTT assay)
Format: cell-based
Protocol: On day 1 calculate the number of cells required for the assay and seed 3×10^4 cells in 200 μl per well. Weigh the compound and dissolve it in DMSO to get 10 mM stock which is further diluted to 3 mM and 1 mM. […] Add DMSO to controls in a way to obtain final concentration of solvent that is not greater than 1%. Incubate for 4 days in 5% CO2 incubator at 37° C. On day 4, 100 μl of medium was removed from each well without disturbing the cells. Add 10 μl of MTT reagent and incubate for 4 hours at 5% CO2 incubator at 37° C. for formation of crystals. Add 200 μl of 0.1N acidic isopropanol to dissolve the crystals and read the plate at 590 nm. The values are mentioned in below Table-3 and Table-3A.

[1] = 0.01 μM, MTT, 4 days (Table 3), read-out: Cytotoxicity % viability
[2] = 0.1 μM, MTT, 4 days (Table 3), read-out: Cytotoxicity % viability
[3] = 1 μM, MTT, 4 days (Table 3), read-out: Cytotoxicity % viability

In the case of `CC(C)C1=C2[C@H]3CC[C@@H]4[C@@]5(C)CC[C@H](OC(=O)[C@H]6C[C@@H](C(=O)O)C6(C)C)C(C)(C)[C@@H]5CC[C@@]4(C)[C@]3(C)CC[C@@]2(NC(=O)C(C)(C)NC(=O)c2ccc(Cl)cc2)CC1=O` [Example 1, (1R,3S)-3-((((3aR,5aR,5bR,7aR,9S,11aR,11bR,13aS)-3a-(2-(4-chlorobenzamido)-2-methylpropanamido)-1-isopropyl-5a,5b,8,8,11a-pentamethyl-2-oxo-3,3a,4,5,5a,5b,6,7,7a,8,9,10,11,11a,11b,12,13,13a-octadecahydro-2H-cyclopenta[a]chrysen-9-yl)oxy)carbonyl)-2,2-dimethylcyclobutane-1-carboxylic acid], the viability at 4 days, 0.01 µM is reported as 57%, the viability at 4 days, 0.1 µM is reported as 10% and the viability at 4 days, 1 µM is reported as 4%.
`CC(C)C1=C2[C@H]3CC[C@@H]4[C@@]5(C)CC[C@H](OC(=O)[C@H]6C[C@@H](C(=O)O)C6(C)C)C(C)(C)[C@@H]5CC[C@@]4(C)[C@]3(C)CC[C@@]2(NC(=O)C(C)(C)NC(=O)[C@@H]2CCCN2C(=O)OC(C)(C)C)CC1=O` [Example 8, (1R,3S)-3-((((3aR,5aR,5bR,7aR,9S,11aR,11bR,13aS)-3a-(2-((S)-1-(tert-butoxycarbonyl)pyrrolidine-2-carboxamido)-2-methylpropanamido)-1-isopropyl-5a, 5b,8,8,11a-pentamethyl-2-oxo-3,3a,4,5,5a,5b,6,7,7a,8,9,10,11,11a,11b,12,13,13a-octadeca hydro-2H-cyclopenta[a]chrysen-9-yl)oxy)carbonyl)-2,2-dimethylcyclobutane-1-carboxylic acid] showed a viability at 4 days, 0.01 µM of 28%, a viability at 4 days, 0.1 µM of 5% and a viability at 4 days, 1 µM of 3%.
Work on `CCN1CCN(CC(=O)NC(C)(C)C(=O)N[C@@]23CC[C@]4(C)[C@H](CC[C@@H]5[C@@]6(C)CC[C@H](OC(=O)[C@H]7C[C@@H](C(=O)O)C7(C)C)C(C)(C)[C@@H]6CC[C@]54C)C2=C(C(C)C)C(=O)C3)CC1` [Example 9, (1R,3S)-3-((((3aR,5aR,5bR,7aR,9S,11aR,11bR,13aS)-3a-(2-(2-(4-ethylpiperazin-1-yl)acetamido)-2-methylpropanamido)-1-isopropyl-5a,5b,8,8,11a-pentamethyl-2-oxo-3,3a,4,5,5a,5b,6,7,7a,8,9,10,11,11a,11b,12,13,13a-octadecahydro-2H-cyclopenta[a]chrysen-9-yl)oxy)carbonyl)-2,2-dimethylcyclobutane-1-carboxylic acid] yielded a viability at 4 days, 0.01 µM of 100%, a viability at 4 days, 0.1 µM of 53% and a viability at 4 days, 1 µM of 14%.
Work on `CC(C)C1=C2[C@H]3CC[C@@H]4[C@@]5(C)CC[C@H](OC(=O)[C@H]6C[C@@H](C(=O)O)C6(C)C)C(C)(C)[C@@H]5CC[C@@]4(C)[C@]3(C)CC[C@@]2(NC(=O)C(C)(C)NC(=O)C(C)(C)N)CC1=O` [Example 11, (1R,3S)-3-((((3aR,5aR,5bR,7aR,9S,11aR,11bR,13aS)-3a-(2-(2-amino-2-methylpropanamido)-2-methylpropanamido)-1-isopropyl-5a,5b,8,8,11a-pentamethyl-2-oxo-3,3a,4,5,5a,5b,6,7,7a,8,9,10,11,11a,11b,12,13,13a-octadecahydro-2H-cyclopenta[a]chrysen-9-yl)oxy)carbonyl)-2,2-dimethylcyclobutane-1-carboxylic acid hydrochloride] yielded a viability at 4 days, 0.01 µM of 41%, a viability at 4 days, 0.1 µM of 3% and a viability at 4 days, 1 µM of 1%.
Compound `CC(C)C1=C2[C@H]3CC[C@@H]4[C@@]5(C)CC[C@H](OC(=O)[C@H]6C[C@@H](C(=O)O)C6(C)C)C(C)(C)[C@@H]5CC[C@@]4(C)[C@]3(C)CC[C@@]2(NC(=O)C(C)(C)NC(=O)c2nccn2C)CC1=O` [Example 16, (1R,3S)-3-((((3aR,5aR,5bR,7aR,9S,11aR,11bR,13aS)-1-isopropyl-5a,5b,8,8,11a-pentamethyl-3a-(2-methyl-2-(1-methyl-1H-imidazole-2-carboxamido)propanamido)-2-oxo-3,3a,4,5,5a,5b,6,7,7a,8,9,10,11,11a,11b,12,13,13a-octadecahydro-2H-cyclopenta[a]chrysen-9-yl)oxy)carbonyl)-2,2-dimethylcyclobutane-1-carboxylic acid] has a viability at 4 days, 0.01 µM of 37%, a viability at 4 days, 0.1 µM of 11% and a viability at 4 days, 1 µM of 2%.
With `CC(C)C1=C2[C@H]3CC[C@@H]4[C@@]5(C)CC[C@H](OC(=O)[C@H]6C[C@@H](C(=O)O)C6(C)C)C(C)(C)[C@@H]5CC[C@@]4(C)[C@]3(C)CC[C@@]2(NC(=O)C(C)(C)NC(=O)c2ccco2)CC1=O` [Example 26, (1R,3S)-3-((((3aR,5aR,5bR,7aR,9S,11aR,11bR,13aS)-3a-(2-(furan-2-carboxamido)-2-methylpropanamido)-1-isopropyl-5a,5b,8,8,11a-pentamethyl-2-oxo-3,3a,4,5,5a,5b,6,7,7a,8,9,10,11,11a,11b,12,13,13a-octadecahydro-2H-cyclopenta[a]chrysen-9-yl)oxy)carbonyl)-2,2-dimethylcyclobutane-1-carboxylic acid] the viability at 4 days, 0.01 µM was 55%, the viability at 4 days, 0.1 µM was 20% and the viability at 4 days, 1 µM was 0%.
Compound `CC(C)C1=C2[C@H]3CC[C@@H]4[C@@]5(C)CC[C@H](OC(=O)[C@H]6C[C@@H](C(=O)O)C6(C)C)C(C)(C)[C@@H]5CC[C@@]4(C)[C@]3(C)CC[C@@]2(NC(=O)C(C)(C)NC(=O)C2(c3ccccc3)CCCC2)CC1=O` [Example 27, (1R,3S)-3-((((3aR,5aR,5bR,7aR,9S,11aR,11bR,13aS)-1-isopropyl-5a,5b,8,8,11a-pentamethyl-3a-(2-methyl-2-(1-phenylcyclopentane-1-carboxamido)propanamido)-2-oxo-3,3a,4,5,5a,5b,6,7,7a,8,9,10,11,11a,11b,12,13,13a-octadecahydro-2H-cyclopenta[a]chrysen-9-yl)oxy)carbonyl)-2,2-dimethylcyclobutane-1-carboxylic acid] has a viability at 4 days, 0.01 µM of 52%, a viability at 4 days, 0.1 µM of 2% and a viability at 4 days, 1 µM of 0%.
With `Cc1cccnc1C(=O)NC(C)(C)C(=O)N[C@@]12CC[C@]3(C)[C@H](CC[C@@H]4[C@@]5(C)CC[C@H](OC(=O)[C@H]6C[C@@H](C(=O)O)C6(C)C)C(C)(C)[C@@H]5CC[C@]43C)C1=C(C(C)C)C(=O)C2` [Example 29, (1R,3S)-3-((((3aR,5aR,5bR,7aR,9S,11aR,11bR,13aS)-1-isopropyl-5a,5b,8,8,11a-pentamethyl-3a-(2-methyl-2-(3-methylpicolinamido)propanamido)-2-oxo-3,3a,4,5,5a,5b,6,7,7a,8,9,10,11,11a,11b,12,13,13a-octadecahydro-2H-cyclopenta[a]chrysen-9-yl)oxy)carbonyl)-2,2-dimethylcyclobutane-1-carboxylic acid] the viability at 4 days, 0.01 µM was 29%, the viability at 4 days, 0.1 µM was 3% and the viability at 4 days, 1 µM was 2%.
In the case of `CC(C)C1=C2[C@H]3CC[C@@H]4[C@@]5(C)CC[C@H](OC(=O)[C@H]6C[C@@H](C(=O)O)C6(C)C)C(C)(C)[C@@H]5CC[C@@]4(C)[C@]3(C)CC[C@@]2(NC(=O)C(C)(C)NC(=O)CN2CCS(=O)(=O)CC2)CC1=O` [Example 34, (1R,3S)-3-((((3aR,5aR,5bR,7aR,9S,11aR,11bR,13aS)-3a-(2-(2-(1,1-dioxidothiomorpholino)acetamido)-2-methylpropanamido)-1-isopropyl-5a,5b,8,8,11a-pentamethyl-2-oxo-3,3a,4,5,5a,5b,6,7,7a,8,9,10,11,11a,11b,12,13,13a-octadecahydro-2H-cyclopenta[a]chrysen-9-yl)oxy)carbonyl)-2,2-dimethylcyclobutane-1-carboxylic acid], the viability at 4 days, 0.01 µM is reported as 26%, the viability at 4 days, 0.1 µM is reported as 10% and the viability at 4 days, 1 µM is reported as 1%.
`CC(C)C1=C2[C@H]3CC[C@@H]4[C@@]5(C)CC[C@H](OC(=O)[C@H]6C[C@@H](C(=O)O)C6(C)C)C(C)(C)[C@@H]5CC[C@@]4(C)[C@]3(C)CC[C@@]2(NC(=O)C(C)(C)NC(=O)C2CCNCC2)CC1=O` [Example 35, (1R,3S)-3-((((3aR,5aR,5bR,7aR,9S,11aR,11bR,13aS)-1-isopropyl-5a,5b,8,8,11a-pentamethyl-3a-(2-methyl-2-(piperidine-4-carboxamido)propanamido)-2-oxo-3,3a,4,5,5a,5b,6,7,7a,8,9,10,11,11a,11b,12,13,13a-octadecahydro-2H-cyclopenta[a]chrysen-9-yl)oxy)carbonyl)-2,2-dimethylcyclobutane-1-carboxylic acid hydrochloride] showed a viability at 4 days, 0.01 µM [1] of 84%, a viability at 4 days, 0.1 µM [2] of 92% and a viability at 4 days, 1 µM [3] of 77%.
`CC(C)C1=C2[C@H]3CC[C@@H]4[C@@]5(C)CC[C@H](OC(=O)[C@H]6C[C@@H](C(=O)O)C6(C)C)C(C)(C)[C@@H]5CC[C@@]4(C)[C@]3(C)CC[C@@]2(NC(=O)C(C)(C)NC(=O)[C@@H](N)C(C)C)CC1=O` [Example 36, (1R,3S)-3-((((3aR,5aR,5bR,7aR,9S,11aR,11bR,13aS)-3a-(2-((S)-2-amino-3-methylbutanamido)-2-methylpropanamido)-1-isopropyl-5a,5b,8,8,11a-pentamethyl-2-oxo-3,3a,4,5,5a,5b,6,7,7a,8,9,10,11,11a,11b,12,13,13a-octadecahydro-2H-cyclopenta[a]chrysen-9-yl)oxy)carbonyl)-2,2-dimethylcyclobutane-1-carboxylic acid hydrochloride] gave a viability at 4 days, 0.01 µM [1] of 56%, a viability at 4 days, 0.1 µM [2] of 15% and a viability at 4 days, 1 µM [3] of 8%.
